# From patent US8658646B2, “Pyrrolopyrazine kinase inhibitors” (Hoffmann-LaRoche Inc., priority 2011, dated 2014)
# Target: T1, JAK3: Recombinant human kinase domain (Homo sapiens, UniProt P52333)
# T1 construct: JAK3: Recombinant human kinase domain from Millipore (Cat #14-629) or prepared; purchased Millipore 14-629
# Experiment: Determination of IC50 of Janus Kinase (JAK) inhibition, radioactive end-point 33P-ATP assay, JAK3
# Assay type: biochemical
# Conditions: ATP 1.5 uM, peptide 50 uM, 20 minutes, read-out: JAK3-INHIB-DR/v1~NO ADDITIVE~Enzyme_Conc = 100
# Protocol: Determination of IC50 of Janus Kinase (JAK) Inhibition:
# Assay conditions used are described below: • Assay Buffer: JAK Kinase Buffer: 50 mM Hepes [pH 7.2], 10 mM MgCl2, 1 mM DTT, 1 mg/ml BSA. The assay was carried out in this buffer. • Assay Format The kinase activity of all three JAK kinases was measured using a radioactive, end-point assay and with trace amounts of ^33P-ATP. The assays were carried out in 96-well polypropylene plates. Experimental Method:
# All concentrations were final in the reaction mixture and all incubations were carried at room temperature. […] Final concentration of DMSO in the reaction was 10%. • 2) Compounds were preincubated with enzyme (0.5 nM JAK3 (commercially available), 0.2 nM JAK3 (prepared), 1 nM JAK2, 5 nM JAK1) for 10 minutes. • 3) Reactions were initiated by the addition of a cocktail of the two substrates (ATP and peptide premixed in the JAK Kinase Buffer). […] JAK1 assay was carried out at an ATP concentration of 10 uM and a peptide concentration of 50 uM. • 4) The duration of the assay for JAK2 and JAK3 is 20 minutes. JAK1 assay was carried out for 40 minutes. With all three enzymes, reactions were terminated by the addition of 0.5M EDTA to a final concentration of 100 mM. • 5) 25 ul of terminated reactions were transferred to 150 ul of a 7.5% (v/v) slurry of streptavidin-coated sepharose beads in MgCl2- and CaCl2-free 1× Phosphate Buffered Saline containing 50 mM of EDTA in 96-well, 1.2 um MultiScreen-BV filter plates. • 6) After a 30-minute incubation, the beads were washed under vacuum with the following buffers: • a. 3 to 4 washes with 200 ul of 2M NaCl. • b. 3 to 4 washes with 200 ul of 2M NaCl plus 1% (v/v) phosphoric acid. • c. 1 wash with water. • 7) Washed plates were dried in a 60° C. oven for between 1 to 2 hours. • 8) 70 ul of Microscint 20 scintillation fluid was added to each well of filter plates and after at least 30 minutes of incubation, radioactive counts were measured in a Perkinelmer microplate scintillation counter.
# T1 sequence (P52333 822-1111 limits assumed): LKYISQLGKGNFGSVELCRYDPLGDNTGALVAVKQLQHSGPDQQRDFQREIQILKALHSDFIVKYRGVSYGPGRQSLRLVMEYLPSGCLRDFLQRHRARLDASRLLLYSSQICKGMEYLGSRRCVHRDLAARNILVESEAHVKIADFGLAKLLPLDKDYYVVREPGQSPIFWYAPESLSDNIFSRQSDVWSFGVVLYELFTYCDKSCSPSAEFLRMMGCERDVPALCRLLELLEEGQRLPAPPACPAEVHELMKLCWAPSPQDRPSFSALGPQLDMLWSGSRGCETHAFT
row,Compound,IC50
1,"C[C@@H](NC(=O)c1c[nH]c2ncc(-c3nn(C)c4cc(Cl)ccc34)nc12)C(=O)N1CC(F)(F)C1 [Example I-14, 2-(6-Chloro-1-methyl-1H-indazol-3-yl)-5H-pyrrolo[2,3-b]pyrazine-7-carboxylic acid [(R)-2-(3,3-difluoro-azetidin-1-yl)-1-methyl-2-oxo-ethyl]-amide]",27.5 nM
2,"C[C@@H](NC(=O)c1c[nH]c2ncc(-c3nn(C)c4cc(F)ccc34)nc12)C(F)(F)Cc1ccccc1 [Example I-61, 2-(6-Fluoro-1-methyl-1H-indazol-3-yl)-5H-pyrrolo[2,3-b]pyrazine-7-carboxylic acid ((R)-2,2-difluoro-1-methyl-3-phenyl-propyl)-amide]",16.8 nM
3,"C[C@@H](NC(=O)c1c[nH]c2ncc(-c3nn(C)c4cc(F)ccc34)nc12)c1cccc(C#N)c1 [Example I-217, 2-(6-Fluoro-1-methyl-1H-indazol-3-yl)-5H-pyrrolo[2,3-b]pyrazine-7-carboxylic acid [(R)-1-(3-cyano-phenyl)-ethyl]-amide]",23.2 nM

# Results, then the compound that gave them:
row,IC50,Compound
1,15.1 nM,"C[C@@H](NC(=O)c1c[nH]c2ncc(-c3nn(C)c4cc(F)ccc34)nc12)c1nc(CC#N)co1 [Example I-62, 2-(6-Fluoro-1-methyl-1H-indazol-3-yl)-5H-pyrrolo[2,3-b]pyrazine-7-carboxylic acid [(R)-1-(4-cyanomethyl-oxazol-2-yl)-ethyl]-amide]"
2,15.1 nM,"C[C@@H](NC(=O)c1c[nH]c2ncc(-c3nn(C)c4cc(F)ccc34)nc12)c1cc(C(F)(F)F)ccn1 [Example I-79, 2-(6-Fluoro-1-methyl-1H-indazol-3-yl)-5H-pyrrolo[2,3-b]pyrazine-7-carboxylic acid [(R)-1-(4-trifluoromethyl-pyridin-2-yl)-ethyl]-amide]"
3,14.3 nM,"CC(C)NC(=O)c1c[nH]c2ncc(-c3nn(CCCN(C)C)c4cc(Cl)cc(F)c34)nc12 [Example I-130, 2-[6-Chloro-1-(3-dimethylamino-propyl)-4-fluoro-1H-indazol-3-yl]-5H-pyrrolo[2,3-b]pyrazine-7-carboxylic acid isopropylamide]"
4,13.3 nM,"C[C@@H](NC(=O)c1c[nH]c2ncc(-c3nn(C)c4cc(F)ccc34)nc12)[C@H]1CCCO1 [Example I-64, 2-(6-Fluoro-1-methyl-1H-indazol-3-yl)-5H-pyrrolo[2,3-b]pyrazine-7-carboxylic acid [(R)-(R)-1-(tetrahydro-furan-2-yl)-ethyl]-amide]"
5,6.78 nM,"C[C@@H](NC(=O)c1c[nH]c2ncc(-c3nn(C)c4cccnc34)nc12)C(=O)N1CC(C#N)C1 [Example I-98, 2-(1-Methyl-1H-pyrazolo[4,3-b]pyridin-3-yl)-5H-pyrrolo[2,3-b]pyrazine-7-carboxylic acid [(R)-2-(3-cyano-azetidin-1-yl)-1-methyl-2-oxo-ethyl]-amide]"
6,5.26 nM,"Cn1nc(-c2cnc3[nH]cc(C(=O)NC4CCCC4)c3n2)c2ccc(Cl)cc21 [Example I-106, 2-(6-Chloro-1-methyl-1H-indazol-3-yl)-5H-pyrrolo[2,3-b]pyrazine-7-carboxylic acid cyclopentylamide]"
7,2.17 nM,"C[C@@H](NC(=O)c1c[nH]c2ncc(-c3cnc4ccccn34)nc12)C(=O)N1CC(C#N)C1 [Example I-220, 2-Imidazo[1,2-a]pyridin-3-yl-5H-pyrrolo[2,3-b]pyrazine-7-carboxylic acid [(R)-2-(3-cyano-azetidin-1-yl)-1-methyl-2-oxo-ethyl]-amide]"

# Target: T2, recombinant human SYK360-635 (Homo sapiens, UniProt P43405)
# T2 construct: made in house
# Experiment: Determination of IC50 of Spleen Tyrosine Kinase (SYK) inhibition, 33P ATP filtration assay
# Assay type: biochemical
# Conditions: SYK aa 360-635 0.5 nM; ATP 20 μM, peptide 5 μM, 0.1% BSA; read-out: SYK_ENZYME_FILTRATION/v1, BSA
row,IC50,Compound
1,6.9 nM,"C[C@@H](CO)NC(=O)c1c[nH]c2ncc(-c3n[nH]c4cc(Cl)ccc34)nc12 [Example I-419, 2-(6-Chloro-1H-indazol-3-yl)-5H-pyrrolo[2,3-b]pyrazine-7-carboxylic acid ((S)-2-hydroxy-1-methyl-ethyl)-amide]"
2,5.55 nM,"CC(=O)N(C)CCCn1nc(-c2cnc3[nH]cc(C(=O)NC(C)(C)C)c3n2)c2cc(OC(F)F)ccc21 [Example I-346, 2-{1-[3-(Acetyl-methyl-amino)-propyl]-5-difluoromethoxy-1H-indazol-3-yl}-5H-pyrrolo[2,3-b]pyrazine-7-carboxylic acid tert-butylamide]"
